Data on eight compounds can be found in patent publication US20130324412A1, “N-ALKOXYAMIDES OF 6-(SUBSTITUTED PHENYL)-4-AMINOPICOLINATES AND 2-(SUBSTITUTED PHENYL)-6-AMINO-4-PYRIMIDINECARBOXYLATES AND THEIR USE AS SELECTIVE HERBICIDES FOR CROPS” (DOW AGROSCIENCES LLC, priority 2009, published 2013).

Holding throughout (format): in vivo
Assay [1] has as its system sugar beet (Beta vulgaris). The assay is described as follows: Postemergence herbicidal activity in sugar beet, crop. Also on record: unit not given here. As to conditions: visual rating after 21 d, probit analysis, dose to kill or control 20 percent. On the procedure:
(§1) Seeds of sugar beet and the desired weed species were planted in Sun Gro MetroMix® 360 planting mixture, which typically has a pH of 6.0 to 6.8 and an organic matter content of about 30 percent, in plastic pots with a surface area of 95 cm^2. When required to ensure good germination and healthy plants, a fungicide treatment and/or other chemical or physical treatment was applied. The plants were grown for 15-28 d in a greenhouse with an approximate 15-h photoperiod which was maintained at about 23-29° C. during the day and 22-28° C. during the night. Nutrients and water were added on a regular basis and supplemental lighting was provided with overhead metal halide 1000-Watt lamps as necessary. The sugar beet plants were utilized for testing when they reached the third or fourth true leaf stage. The weed species were utilized at the fourth true leaf stage.
(§2) A weighed amount, determined by the highest rate to be tested, of each test compound was dissolved in 4 mL of a 97:3 v/v mixture of acetone and DMSO to obtain concentrated stock solutions. […] The concentrated stock solutions obtained were diluted with 20 mL of an aqueous mixture containing acetone, water and Agri-Dex crop oil concentrate, in a 16.7:82.1:1.25 v/v ratio to obtain spray solutions containing the highest application rates. Additional application rates were obtained by serial dilution of 12 mL of the high rate solution into a solution containing 2 mL of 97:3 v/v mixture of acetone and DMSO and 10 mL of an aqueous mixture containing acetone, water and Agri-Dex crop oil concentrate, in a 16.7:82.1:1.25 v/v ratio to obtain ½×, ¼×, ⅛× and 1/16× rates of the high rate. Compound requirements are based upon a 12 mL application volume at a rate of 187 L/ha. Formulated compounds were applied to the plant material with an overhead Mandel track sprayer equipped with 8002E nozzles calibrated to deliver 187 L/ha over an application area of 0.503 m^2 at a spray height of 18 inches (43 cm) above the average plant canopy height. Control plants were sprayed in the same manner with the solvent blank.
(§3) The treated plants and control plants were placed in a greenhouse as described above and watered by sub-irrigation to prevent wash-off of the test compounds. After 21 d, the condition of the test plants as compared with that of the untreated plants was determined visually and scored on a scale of 0 to 100 percent where 0 corresponds to no injury and 100 corresponds to complete kill.
(§4) By applying the well-accepted probit analysis as described by J. Berkson in Journal of the American Statistical Society 1953, 48, 565, and by D. Finney in “Probit Analysis” Cambridge University Press (1952), the above data can be used to calculate GR20 and GR80 values, which are defined as growth reduction factors that correspond to the effective dose of herbicide required to kill or control 20 percent or 80 percent, respectively, of a target plant.

For assay [2], the system named is winter oilseed rape (canola) (Brassica napus). The assay can be described thus: Postemergence herbicidal activity in oilseed rape (canola), crop. As to conditions: visual rating after 21 d, probit analysis, dose to kill or control 20 percent. Also on record: unit not given here. On the procedure: as §1, with “oilseed rape (canola)” for “sugar beet”
as §2, §3, §4

Assay [3] concerns velvetleaf (Abutilon theophrasti). The assay is described as follows: General postemergence herbicidal activity, velvetleaf. To be noted: post-emergence, 336 h, postemergence, after 14 d, 0 = no injury, 100 = complete kill, read-out: ABUTH % Visual Injury; for pest or weed control at 140 g/ha: 140 g ai/ha; for pest or weed control at 70 g/ha: 70 g ai/ha; for pest or weed control at 17.5 g/ha: 17.5 g ai/ha. A digest of the protocol: (§5)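 Greenhouse plants at first to second true leaf stage sprayed overhead at 187 L/ha in acetone/DMSO with crop oil concentrate and surfactant, at a high rate plus ½× to 1/16× serial dilutions. Injury rated visually after 14 d against solvent-blank controls, 0 (none) to 100% (complete kill).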

For assay [4], the system named is purple deadnettle (Lamium purpureum). The assay can be described thus: Postemergence herbicidal activity in sugar beet, purple deadnettle. To be noted: sugar beet test, visual rating after 21 d, probit analysis, dose to kill or control 80 percent. Set-up: unit not given here. Here is the method:
as §1, §2
The treated plants and control plants were placed in a greenhouse as described above and watered by sub-irrigation to prevent wash-off of the test compounds. After 21 d, the condition of the test plants as compared with that of the untreated plants was determined visually and scored on a scale of 0 to 100 percent where 0 corresponds to no injury and 100 corresponds to complete kill. […]

Assay [5] concerns lambsquarters (Chenopodium album). The assay is described as follows: General postemergence herbicidal activity, lambsquarters. As to conditions: post-emergence, 336 h, postemergence, after 14 d, 0 = no injury, 100 = complete kill, read-out: CHEAL % Visual Injury; for pest or weed control at 140 g/ha: 140 g ai/ha; for pest or weed control at 70 g/ha: 70 g ai/ha; for pest or weed control at 17.5 g/ha: 17.5 g ai/ha. In short, it runs like this: as §5

Assay [6] concerns purple deadnettle (Lamium purpureum). The assay is described as follows: Postemergence herbicidal activity in oilseed rape (canola), purple deadnettle. Also on record: unit not given here. To be noted: oilseed rape (canola) test, visual rating after 21 d, probit analysis, dose to kill or control 80 percent. Here is the method: as §1, with “oilseed rape (canola)” for “sugar beet”
as §2, §3, §4

For assay [7], the system named is corn (Zea mays). The assay is described as follows: General postemergence herbicidal activity, corn. As to conditions: post-emergence, 336 h, postemergence, after 14 d, 0 = no injury, 100 = complete kill, read-out: ZEAMX % Visual Injury; for plant injury at 140 g/ha: 140 g ai/ha; for plant injury at 70 g/ha: 70 g ai/ha; for plant injury at 17.5 g/ha: 17.5 g ai/ha. A digest of the protocol:
as §5

In assay [8] the test system is lambsquarters (Chenopodium album). The assay is described as follows: Postemergence herbicidal activity in oilseed rape (canola), lambsquarters. To be noted: oilseed rape (canola) test, visual rating after 21 d, probit analysis, dose to kill or control 80 percent. Also on record: unit: g ai/ha. On the procedure:
as §1, with “oilseed rape (canola)” for “sugar beet”
as §2, §3, §4

The test system of assay [9] is wild buckwheat (Polygonum convululus). The assay can be described thus: General postemergence herbicidal activity, wild buckwheat. To be noted: post-emergence, 336 h, postemergence, after 14 d, 0 = no injury, 100 = complete kill, read-out: POLCO % Visual Injury; for pest or weed control at 140 g/ha: 140 g ai/ha; for pest or weed control at 70 g/ha: 70 g ai/ha; for pest or weed control at 17.5 g/ha: 17.5 g ai/ha. In short, it runs like this:
as §5

Assay [10] deals with lambsquarters (Chenopodium album). The assay is described as follows: Postemergence herbicidal activity in sugar beet, lambsquarters. Also on record: unit not given here. To be noted: sugar beet test, visual rating after 21 d, probit analysis, dose to kill or control 80 percent. Here is the method:
as §1, §2, §3, §4

Each structure is given as a SMILES string.

Turning to `CCONC(=O)c1nc(-c2ccc(Cl)c(OC)c2F)cc(N)c1Cl` [Compound 4, 4-Amino-3-chloro-6-(4-chloro-2-fluoro-3-methoxyphenyl)-N-ethoxypicolinamide], the “BEAVA GR20” value in assay [1] is above 140. Moreover, the “BRSNW GR20” value in assay [2] is recorded as above 140. In addition, the pest or weed control at 140 g/ha in [3], in assay [5] and in assay [9] was 100% in each case. In addition, the “LAMPU GR80” value in [4] and in assay [6] was below 4.38 each time. Also, the plant injury at 140 g/ha in assay [7] is 0%. In addition, the “CHEAL GR80” value is 11 in assay [8] and below 8.75 in [10].
Turning to `COc1c(Cl)ccc(-c2cc(N)c(Cl)c(C(=O)NOC/C=C/Cl)n2)c1F` [Compound 31, (E)-4-Amino-3-chloro-6-(4-chloro-2-fluoro-3-methoxyphenyl)-N-(3-chloro-2-propenyl-oxy)picolinamide], the “BEAVA GR20” value in assay [1] is on record as above 140. Further, the pest or weed control at 70 g/ha in [3], in [5] and in assay [9] was 100% each time. The plant injury at 70 g/ha in assay [7] is 5%. Moreover, the “CHEAL GR80” value in assay [10] is listed as below 8.75.
Turning to `C=CCONC(=O)c1nc(-c2ccc(Cl)c(OC)c2F)c(F)c(N)c1Cl` [Compound 39, N-(2-Propenyloxy)-4-amino-3-chloro-6-(4-chloro-2-fluoro-3-methoxyphenyl)-5-fluoropicolinamide], in assay [2], the “BRSNW GR20” value is above 70. For the same compound, the pest or weed control at 17.5 g/ha in assay [3], in assay [5] and in [9] was 100% each time. The “LAMPU GR80” value in assay [6] is reported as below 8.75. In addition, in assay [7], the plant injury at 17.5 g/ha was determined as 45%. The “CHEAL GR80” value in assay [8] is on record as 49.
In the case of `C/C=C/CONC(=O)c1nc(-c2ccc(Cl)c(OC)c2F)cc(N)c1Cl` [Compound 30, (E)-4-Amino-N-(2-butenyloxy)-3-chloro-6-(4-chloro-2-fluoro-3-methoxy-phenyl)picolinamide], the “BEAVA GR20” value in assay [1] is reported as above 140. The “BRSNW GR20” value in [2] is recorded as above 70. The pest or weed control at 70 g/ha in assay [3], in assay [5] and in [9] was 100% in each case. In addition, the “LAMPU GR80” value in [4] and in assay [6] was below 4.38 each time. The plant injury at 70 g/ha in assay [7] was 50%. The “CHEAL GR80” value in assay [8] and in assay [10] was below 8.75 each time.
As for `COc1c(Cl)ccc(-c2cc(N)c(Cl)c(C(=O)NOCc3cnc(Cl)s3)n2)c1F` [Compound 41, 4-Amino-3-chloro-6-(4-chloro-2-fluoro-3-methoxyphenyl)-N-((2-chlorothiazol-5-yl)-methoxy)picolinamide], in [1], the “BEAVA GR20” value stood at 136. The pest or weed control at 70 g/ha in [3], in [5] and in [9] was 100% in each case. For the same compound, in assay [4], the “LAMPU GR80” value is reported as below 4.38. Further, the plant injury at 70 g/ha in assay [7] worked out at 5%. Moreover, the “CHEAL GR80” value in assay [10] was determined as 30.
In the case of `COc1c(Cl)ccc(-c2nc(C(=O)NOC3CCCCO3)c(Cl)c(N)c2F)c1F` (stereo not shown) [Compound 48, 4-Amino-3-chloro-6-(4-chloro-2-fluoro-3-methoxyphenyl)-5-fluoro-N-(tetrahydro-2H-pyran-2-yloxy)picolinamide], the “BRSNW GR20” value in assay [2] is recorded as above 70. The pest or weed control at 140 g/ha in [3], in [5] and in [9] was 100% each time. Besides, the “LAMPU GR80” value in assay [6] is below 4.38. The plant injury at 140 g/ha in assay [7] was 0%. Moreover, in [8], the “CHEAL GR80” value worked out at 18.
For the compound `C=C(F)CONC(=O)c1nc(-c2ccc(Cl)c(OC)c2F)cc(N)c1Cl` [Compound 37, 4-Amino-3-chloro-6-(4-chloro-2-fluoro-3-methoxyphenyl)-N-(2-fluoro-2-propenyl-oxy)picolinamide], the pest or weed control at 17.5 g/ha in assay [3], in assay [5] and in [9] was 100% each time. Moreover, in [7], the plant injury at 17.5 g/ha came out at 25%.
Take `COc1c(Cl)ccc(-c2cc(N)c(Cl)c(C(=O)NOC3CCCO3)n2)c1F` (stereo not shown) [Compound 17, 4-Amino-3-chloro-6-(4-chloro-2-fluoro-3-methoxyphenyl)-N-(tetrahydrofuran-2-yloxy)picolinamide]: the pest or weed control at 70 g/ha in assay [3], in assay [5] and in assay [9] was 100% each time. In assay [7], the plant injury at 70 g/ha stood at 10%.
